# According to patent USRE49735E1 (BRISTOL-MYERS SQUIBB COMPANY, priority 2010, dated 2023):
# Values joined by “and” are separate entries in the source; they are usually repeats but may differ in a detail not shown here. Identical values can stand only once.
# Biological target: human mGluR5A (Homo sapiens, UniProt P41594)
# Assay: mGluR5 FLIPR Assay
# Format: cell-based
# Details: positive modulator activity; HEK293 (ZF) cells with human mGluR5A and rat GLAST; Ca++ response to ~EC10 glutamate
# human mGluR5A, sequence (P41594 21-1180 isoform P41594-2): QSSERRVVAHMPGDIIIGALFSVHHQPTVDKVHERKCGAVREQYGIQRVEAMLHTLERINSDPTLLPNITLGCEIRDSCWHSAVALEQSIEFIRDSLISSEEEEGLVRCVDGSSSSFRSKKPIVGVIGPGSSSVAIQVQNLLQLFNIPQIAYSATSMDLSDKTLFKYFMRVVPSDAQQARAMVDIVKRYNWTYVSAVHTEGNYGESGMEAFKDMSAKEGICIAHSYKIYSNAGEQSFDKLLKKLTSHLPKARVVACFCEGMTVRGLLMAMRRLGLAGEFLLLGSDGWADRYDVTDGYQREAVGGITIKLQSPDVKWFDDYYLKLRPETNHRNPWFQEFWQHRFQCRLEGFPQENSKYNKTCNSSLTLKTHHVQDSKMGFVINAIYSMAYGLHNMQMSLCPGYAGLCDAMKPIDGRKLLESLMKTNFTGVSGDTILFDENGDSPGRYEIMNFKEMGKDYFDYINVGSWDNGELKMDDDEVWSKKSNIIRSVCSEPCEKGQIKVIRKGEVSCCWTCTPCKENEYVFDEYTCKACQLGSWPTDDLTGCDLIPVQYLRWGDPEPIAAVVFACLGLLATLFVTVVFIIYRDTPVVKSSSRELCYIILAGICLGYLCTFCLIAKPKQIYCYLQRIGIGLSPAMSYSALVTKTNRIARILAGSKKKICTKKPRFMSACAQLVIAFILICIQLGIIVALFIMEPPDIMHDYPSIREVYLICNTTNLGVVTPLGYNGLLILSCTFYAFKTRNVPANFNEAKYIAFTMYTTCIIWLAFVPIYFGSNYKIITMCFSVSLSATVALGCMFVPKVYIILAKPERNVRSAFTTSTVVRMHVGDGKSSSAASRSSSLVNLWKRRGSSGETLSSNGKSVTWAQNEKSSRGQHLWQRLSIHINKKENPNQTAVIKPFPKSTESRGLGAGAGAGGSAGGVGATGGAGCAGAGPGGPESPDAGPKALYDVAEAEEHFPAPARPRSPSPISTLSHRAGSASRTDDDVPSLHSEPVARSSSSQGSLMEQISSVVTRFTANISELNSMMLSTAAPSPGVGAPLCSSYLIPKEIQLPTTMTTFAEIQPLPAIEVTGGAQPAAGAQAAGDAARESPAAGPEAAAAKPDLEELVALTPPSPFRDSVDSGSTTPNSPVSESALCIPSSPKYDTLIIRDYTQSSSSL
row,EC50,Compound
1,> 1 µM,"O=C1N[C@H](c2cc(C#Cc3ccnc(C4CC4)c3)cnc2F)[C@@H](c2ccc(Cl)cc2)O1 [Example 150, (4R,5R)-5-(4-Chlorophenyl)-4-(5-((2-cyclopropylpyridin-4-yl)ethynyl)-2-fluoropyridin-3-yl)oxazolidin-2-one]"
2,> 1 µM,"O=C1N[C@H](c2cc(C#Cc3ccc(C4CC4)nc3)cnc2F)[C@@H](c2ccc(F)cc2)O1 [Example 151, (4R,5R)-4-(5-((6-Cyclopropylpyridin-3-yl)ethynyl)-2-fluoropyridin-3-yl)-5-(4-fluorophenyl)oxazolidin-2-one]"
3,> 1 µM,"O=C1N[C@H](c2cc(C#Cc3ccnc(C4CC4)c3)cnc2F)[C@@H](c2ccc(F)cc2)O1 [Example 152, (4R,5R)-4-(5-((2-Cyclopropylpyridin-4-yl)ethynyl)-2-fluoropyridin-3-yl)-5-(4-fluorophenyl)oxazolidin-2-one]"
4,0.1 to 1 µM and 0.188 µM,"O=C1N[C@H](c2cc(C#Cc3cccc(C4CC4)n3)cnc2F)[C@@H](c2ccc(F)cc2)O1 [Example 153, (4R,5R)-4-(5-((6-Cyclopropylpyridin-2-yl)ethynyl)-2-fluoropyridin-3-yl)-5-(4-fluorophenyl)oxazolidin-2-one]"
5,> 1 µM,"O=C1N[C@H](c2cc(C#Cc3ccc4nccnc4c3)cnc2F)[C@@H](c2ccc(F)cc2)O1 [Example 154, (4R,5R)-4-(2-fluoro-5-(quinoxalin-6-ylethynyl)pyridin-3-yl)-5-(4-fluorophenyl)oxazolidin-2-one]"
6,> 1 µM,"O=C1N[C@H](c2cc(C#Cc3cncc(C4CC4)c3)cnc2F)[C@@H](c2ccc(F)cc2)O1 [Example 155, (4R,5R)-4-(5-((5-Cyclopropylpyridin-3-yl)ethynyl)-2-fluoropyridin-3-yl)-5-(4-fluorophenyl)oxazolidin-2-one]"
7,< 0.1 µM,"O=C1N[C@H](c2cc(C#Cc3ccccn3)cnc2F)[C@@H](c2ccc(F)cc2)O1 [Example 156, (4R,5R)-4-(2-Fluoro-5-(pyridin-2-ylethynyl)pyridin-3-yl)-5-(4-fluorophenyl)oxazolidin-2-one]"
8,< 0.1 µM,"O=C1N[C@H](c2cc(C#Cc3cccc(F)n3)cnc2F)[C@@H](c2ccc(F)cc2)O1 [Example 157, (4R,5R)-4-(2-Fluoro-5-((6-fluoropyridin-2-yl)ethynyl)pyridin-3-yl)-5-(4-fluorophenyl)oxazolidin-2-one]"
9,> 30 µM,O=C1N[C@H](c2cccc(C#Cc3ccccc3)c2)[C@@H](c2nc(-c3ccccc3)no2)O1 [Example 158]
10,> 1 µM,O=C1N[C@@H](c2cccc(C#Cc3ccccc3)c2)[C@H](c2nc(-c3ccccc3)no2)O1 [Example 159]
11,> 1 µM,O=C1N[C@H](c2cccc(C#Cc3ccccc3)c2)[C@@H](c2nc(-c3ccncc3)no2)O1 [Example 160]
12,> 1 µM,O=C1N[C@@H](c2cccc(C#Cc3ccccc3)c2)[C@H](c2nc(-c3ccncc3)no2)O1 [Example 161]
13,> 1 µM,O=C1N[C@H](c2cccc(C#Cc3ccccc3)c2)[C@@H](c2nc(-c3ccccn3)no2)O1 [Example 162]
14,> 1 µM,O=C1N[C@@H](c2cccc(C#Cc3ccccc3)c2)[C@H](c2nc(-c3ccccn3)no2)O1 [Example 163]
15,> 1 µM,O=C1N[C@H](c2cccc(C#Cc3ccccc3)c2)[C@@H](c2nc(-c3cccnc3)no2)O1 [Example 164]
16,> 1 µM,O=C1N[C@@H](c2cccc(C#Cc3ccccc3)c2)[C@H](c2nc(-c3cccnc3)no2)O1 [Example 165]
17,> 1 µM,Cc1noc([C@H]2OC(=O)N[C@@H]2c2cccc(C#Cc3ccccc3)c2)n1 [Example 166]
18,> 1 µM,Cc1noc([C@@H]2OC(=O)N[C@H]2c2cccc(C#Cc3ccccc3)c2)n1 [Example 167]
19,> 1 µM,"O=C1N[C@H](c2cccc(C#Cc3ccccc3)c2)[C@@H](c2nnn[nH]2)O1 [Example 168, (4R,5S)-4-(3-(Phenylethynyl)phenyl)-5-(1H-tetrazol-5-yl)oxazolidin-2-one]"
20,> 1 µM,"Cn1nnc([C@H]2OC(=O)N[C@@H]2c2cccc(C#Cc3ccccc3)c2)n1 [Example 169, (4R,5S)-5-(2-Methyl-2H-tetrazol-5-yl)-4-(3-(phenylethynyl)phenyl)oxazolidin-2-one]"
21,< 0.1 µM,O=C1N[C@H](c2cncc(C#Cc3ccccc3)c2)[C@@H](c2cc(F)cc(F)c2)O1 [Example 170]
22,< 0.1 µM,O=C1N[C@H](c2cncc(C#Cc3cncc(F)c3)c2)[C@@H](c2cc(F)cc(F)c2)O1 [Example 171]

row,EC50,Compound
1,< 0.1 µM,O=C1N[C@H](c2cncc(C#Cc3ccccc3)c2)[C@@H](c2ccc(F)c(F)c2)O1 [Example 172]
2,< 0.1 µM,O=C1N[C@H](c2cncc(C#Cc3cccnc3)c2)[C@@H](c2ccc(F)c(F)c2)O1 [Example 173]
3,> 1 µM,N#Cc1cccc(C#Cc2cncc([C@H]3NC(=O)O[C@@H]3c3cc(F)cc(F)c3)c2)c1 [Example 174]
4,< 0.1 µM,O=C1N[C@H](c2cncc(C#Cc3cncc(F)c3)c2)[C@@H](c2ccc(F)c(F)c2)O1 [Example 175]
5,< 0.1 µM and 0.0052 µM,N#Cc1cccc(C#Cc2cncc([C@H]3NC(=O)O[C@@H]3c3ccc(F)c(F)c3)c2)c1 [Example 176]
6,> 1 µM,O=C1N[C@H](c2cncc(C#Cc3ccccn3)c2)[C@@H](c2cc(F)cc(F)c2)O1 [Example 177]
7,0.1 to 1 µM and 0.117 µM,O=C1N[C@H](c2cncc(C#Cc3ccccn3)c2)[C@@H](c2ccc(F)c(F)c2)O1 [Example 178]
8,< 0.1 µM,O=C1N[C@H](c2cncc(C#Cc3ccccc3)c2)[C@@H](c2ccc(F)cc2F)O1 [Example 179]
9,0.1 to 1 µM and 0.259 µM,N#Cc1cccc(C#Cc2cncc([C@H]3NC(=O)O[C@@H]3c3ccc(F)cc3F)c2)c1 [Example 180]
10,0.1 to 1 µM and 0.279 µM,O=C1N[C@H](c2cncc(C#Cc3cccnc3)c2)[C@@H](c2cc(F)cc(F)c2)O1 [Example 181]
11,< 0.1 µM,O=C1N[C@H](c2cncc(C#Cc3cncc(F)c3)c2)[C@@H](c2ccc(F)cc2F)O1 [Example 182]
12,< 0.1 µM,O=C1N[C@H](c2cncc(C#Cc3ccccn3)c2)[C@@H](c2ccc(F)cc2F)O1 [Example 183]
13,< 0.1 µM,O=C1N[C@H](c2cncc(C#Cc3cccnc3)c2)[C@@H](c2ccc(F)cc2F)O1 [Example 184]
14,< 0.1 µM,O=C1N[C@H](c2cncc(C#Cc3cccnc3)c2)[C@@H](c2cc(F)ccc2F)O1 [Example 186]
15,< 0.1 µM,O=C1N[C@H](c2cncc(C#Cc3cncc(F)c3)c2)[C@@H](c2cc(F)ccc2F)O1 [Example 187]
16,> 1 µM,N#Cc1cccc(C#Cc2cncc([C@H]3NC(=O)O[C@@H]3c3cc(F)ccc3F)c2)c1 [Example 188]
17,> 1 µM,O=C1N[C@H](c2cncc(C#Cc3ccccn3)c2)[C@@H](c2cc(F)ccc2F)O1 [Example 189]
18,> 1 µM,N#Cc1cccc(C#Cc2cncc([C@@H]3NC(=O)O[C@H]3c3cc(F)cc(F)c3)c2)c1 [Example 190]
19,> 1 µM,O=C1N[C@@H](c2cncc(C#Cc3ccccn3)c2)[C@H](c2cc(F)cc(F)c2)O1 [Example 191]
20,< 0.1 µM,COc1cccc([C@H]2OC(=O)N[C@@H]2c2cccc(C#Cc3cc(F)ccn3)c2)c1 [Example 193]
21,> 1 µM,COc1cccc([C@H]2OC(=O)N[C@@H]2c2cccc(C#Cc3ccc(F)cn3)c2)c1 [Example 195]
22,< 0.1 µM,COc1cccc([C@H]2OC(=O)N[C@@H]2c2cccc(C#Cc3ncccc3F)c2)c1 [Example 196]

row,EC50,Compound
1,> 1 µM,COc1cccc([C@H]2OC(=O)N[C@@H]2c2cccc(C#Cc3cnc4cc[nH]c4c3)c2)c1 [Example 197]
2,< 0.1 µM,O=C1N[C@H](c2cncc(C#Cc3ccccc3)c2)[C@@H](c2cccnc2)O1 [Example 198]
3,> 1 µM,O=C1N[C@@H](c2cncc(C#Cc3ccccc3)c2)[C@H](c2cccnc2)O1 [Example 199]
4,> 1 µM,COc1cccc([C@H]2OC(=O)N[C@@H]2c2cccc(C#Cc3ccnnc3)c2)c1 [Example 200]
5,0.1 to 1 µM,O=C1N[C@H](c2cncc(C#Cc3cncc(F)c3)c2)[C@@H](c2cccnc2)O1 [Example 201]
6,> 1 µM,O=C1N[C@@H](c2cncc(C#Cc3cncc(F)c3)c2)[C@H](c2cccnc2)O1 [Example 202]
7,< 0.1 µM and 0.0025 µM,C[C@]1(c2ccc(F)cc2)OC(=O)N[C@@H]1c1cncc(C#Cc2ccccc2)c1 [Example 203]
8,< 0.1 µM,C[C@@]1(c2ccc(F)cc2)OC(=O)N[C@H]1c1cncc(C#Cc2ccccc2)c1 [Example 204]
9,< 0.1 µM and 0.0022 µM,C[C@@]1(c2ccc(F)cc2)OC(=O)N[C@@H]1c1cncc(C#Cc2ccccc2)c1 [Example 205]
10,0.1 to 1 µM,C[C@]1(c2ccc(F)cc2)OC(=O)N[C@H]1c1cncc(C#Cc2ccccc2)c1 [Example 206]
11,> 1 µM,C[C@@]1(c2ccc(F)cc2)OC(=O)N[C@H]1c1cncc(C#Cc2cncc(F)c2)c1 [Example 207]
12,< 0.1 µM,C[C@]1(c2ccc(F)cc2)OC(=O)N[C@@H]1c1cncc(C#Cc2cncc(F)c2)c1 [Example 208]
13,< 0.1 µM,O=C1N[C@H](c2cncc(C#Cc3ncccc3F)c2)[C@@H](c2ccc(F)cc2)O1 [Example 209]
14,< 0.1 µM,O=C1N[C@H](c2cncc(C#Cc3ccccn3)c2)[C@@H](c2ccc(F)cc2)O1 [Example 210]
15,< 0.1 µM,N#Cc1cncc(C#Cc2cncc([C@H]3NC(=O)O[C@@H]3c3ccc(F)cc3)c2)c1 [Example 211]
16,< 0.1 µM,O=C1N[C@H](c2cncc(C#Cc3cnccn3)c2)[C@@H](c2ccc(F)cc2)O1 [Example 212]
17,< 0.1 µM,O=C1N[C@H](c2cncc(C#Cc3ccncc3)c2)[C@@H](c2ccc(F)cc2)O1 [Example 213]
18,< 0.1 µM,O=C1N[C@H](c2cncc(C#Cc3ccnc(F)c3)c2)[C@@H](c2ccc(F)cc2)O1 [Example 214]
19,< 0.1 µM,N#Cc1cccc(C#Cc2cncc([C@H]3NC(=O)O[C@@H]3c3ccc(F)cc3)c2)c1 [Example 215]
20,< 0.1 µM,O=C1N[C@H](c2cncc(C#Cc3cccc(F)n3)c2)[C@@H](c2ccc(F)cc2)O1 [Example 216]
21,< 0.1 µM,O=C1N[C@H](c2cccc(C#Cc3ccccc3)n2)[C@@H](c2cccc(F)c2)O1 [Example 217]
22,> 1 µM,O=C1N[C@@H](c2cccc(C#Cc3ccccc3)n2)[C@H](c2cccc(F)c2)O1 [Example 218]
